ChEMBL document CHEMBL1149774, “Synthesis of N-(5,7-diamino-3-phenyl-quinoxalin-2-yl)-3,4,5-substituted anilines and N-[4[(5,7-diamino-3-phenylquinoxalin-2-yl)amino]benzoyl]-l-glutamic acid diethyl ester: evaluation of in vitro anti-cancer and anti-folate activities” (Eur J Med Chem, 2008)

Columns and labels:
Format in all cases: functional
[1] = tested on: NCI-H23; assay: Growth inhibition of human NCI-H23 cells after 48 hrs by SRB staining method; details: NCI-H23, 48 h
[2] = tested on: DU-145; assay: Growth inhibition of human DU145 cells after 48 hrs by SRB staining method; details: DU-145, 48 h
[3] = tested on: NCI-H226; assay: Growth inhibition of human NCI-H226 cells after 48 hrs by SRB staining method; details: NCI-H226, 48 h
[4] = tested on: HL-60; assay: Growth inhibition of human HL60 cells after 48 hrs by SRB staining method; details: HL-60, 48 h
[5] = tested on: K562; assay: Growth inhibition of human K562 cells after 48 hrs by SRB staining method; details: K562, 48 h
[6] = tested on: MCF7; assay: Growth inhibition of human MCF7 cells after 48 hrs by SRB staining method; details: MCF7, 48 h
[7] = tested on: UACC-257; assay: Growth inhibition of human UACC257 cells after 48 hrs by SRB staining method; details: UACC-257, 48 h
[8] = tested on: SR; assay: Growth inhibition of human SR cells after 48 hrs by SRB staining method
[9] = tested on: U-251; assay: Growth inhibition of human U251 cells after 48 hrs by SRB staining method; details: U-251, 48 h
[10] = tested on: 786-0; assay: Growth inhibition of human 786-0 cells after 48 hrs by SRB staining method; details: 786-0, 48 h
[11] = tested on: OVCAR-8; assay: Growth inhibition of human OVCAR8 cells after 48 hrs by SRB staining method; details: OVCAR-8, 48 h
[12] = tested on: COLO 205; assay: Growth inhibition of human COLO205 cells after 48 hrs by SRB staining method; details: COLO 205, 48 h
[13] = tested on: NCI-H460; assay: Growth inhibition of human NCI-H460 cells after 48 hrs by SRB staining method; details: NCI-H460, 48 h
[14] = tested on: PC-3; assay: Growth inhibition of human PC3 cells after 48 hrs by SRB staining method; details: PC-3, 48 h
[15] = tested on: IGROV-1; assay: Growth inhibition of human IGROV1 cells after 48 hrs by SRB staining method; details: IGROV-1, 48 h
[16] = tested on: HCT-15; assay: Growth inhibition of human HCT15 cells after 48 hrs by SRB staining method; details: HCT-15, 48 h
[17] = tested on: Malme-3M; assay: Growth inhibition of human MALME-3M cells after 48 hrs by SRB staining method
[18] = tested on: T47D; assay: Growth inhibition of human T47D cells after 48 hrs by SRB staining method
[19] = tested on: NCI/ADR-RES; assay: Growth inhibition of human NCI/ADR-RES cells after 48 hrs by SRB staining method
[20] = tested on: RXF 393; assay: Growth inhibition of human RXF393 cells after 48 hrs by SRB staining method; details: RXF 393, 48 h
[21] = tested on: UO-31; assay: Growth inhibition of human UO31 cells after 48 hrs by SRB staining method; details: UO-31, 48 h
[22] = tested on: SK-OV-3; assay: Growth inhibition of human SKOV3 cells after 48 hrs by SRB staining method; details: SK-OV-3, 48 h
[23] = tested on: UACC-62; assay: Growth inhibition of human UACC62 cells after 48 hrs by SRB staining method; details: UACC-62, 48 h
[24] = tested on: A498; assay: Growth inhibition of human A498 cells after 48 hrs by SRB staining method; details: A498, 48 h
[25] = tested on: BT-549; assay: Growth inhibition of human BT549 cells after 48 hrs by SRB staining method; details: BT-549, 48 h
[26] = tested on: SF-268; assay: Growth inhibition of human SF268 cells after 48 hrs by SRB staining method; details: SF-268, 48 h
[27] = tested on: SNB-19; assay: Growth inhibition of human SNB19 cells after 48 hrs by SRB staining method; details: SNB-19, 48 h
[28] = tested on: CAKI-1; assay: Growth inhibition of human CAKI1 cells after 48 hrs by SRB staining method; details: CAKI-1, 48 h
[29] = tested on: SF-295; assay: Growth inhibition of human SF295 cells after 48 hrs by SRB staining method; details: SF-295, 48 h
[30] = tested on: SK-MEL-2; assay: Growth inhibition of human SK-MEL-2 cells after 48 hrs by SRB staining method; details: SK-MEL-2, 48 h
[31] = tested on: MDA-MB-231; assay: Growth inhibition of human MDA-MB-231 cells after 48 hrs by SRB staining method; details: MDA-MB-231, 48 h
[32] = tested on: OVCAR-5; assay: Growth inhibition of human OVCAR5 cells after 48 hrs by SRB staining method; details: OVCAR-5, 48 h
[33] = tested on: ACHN; assay: Growth inhibition of human ACHN cells after 48 hrs by SRB staining method
[34] = read-out: pLC50 (the source's name) (converted)

With `COc1ccc(Nc2nc3cc(N)cc(N)c3nc2-c2ccccc2)cc1` the GI50 [1] was 12.6 µM, the LC50 [1] was 51.3 µM and the TGI ([1]; read-out: pTGI (converted)) was 25.1 µM. For the same compound, the GI50 [2] was 38.9 µM, the CC50 [2, 34] was over 100 µM and the TGI ([2]; read-out: pTGI (converted)) was over 100 µM. It also gave a GI50 [3] of 24 µM, an LC50 [3] of over 100 µM and a TGI ([3]; read-out: pTGI (converted)) of 97.7 µM. It also gave a GI50 [4] of 34.7 µM, a CC50 [4, 34] of over 100 µM and a TGI ([4]; read-out: pTGI (converted)) of over 100 µM. It also gave a GI50 [5] of 29.5 µM, a CC50 [5, 34] of over 100 µM and a TGI ([5]; read-out: pTGI (converted)) of over 100 µM. The GI50 [6] was 14.8 µM, the CC50 [6, 34] was 52.5 µM and the TGI ([6]; read-out: pTGI (converted)) was 28.2 µM. The GI50 [7] was 15.1 µM, the LC50 [7] was 52.5 µM and the TGI ([7]; read-out: pTGI (converted)) was 27.5 µM. The GI50 [8] was 19.1 µM, the CC50 [8, 34] was over 100 µM and the TGI ([8]; read-out: pTGI (converted)) was over 100 µM. For the same compound, the GI50 [9] was 16.2 µM, the LC50 (50% lethal concentration) [9] was 55 µM and the TGI ([9]; read-out: pTGI (converted)) was 29.5 µM. It also gave a GI50 [10] of 15.8 µM, a CC50 [10, 34] of 60.3 µM and a TGI ([10]; read-out: pTGI (converted)) of 30.9 µM. It also gave a GI50 [11] of 13.8 µM, a CC50 [11, 34] of 67.6 µM and a TGI ([11]; read-out: pTGI (converted)) of 30.9 µM. It also gave a GI50 [12] of 15.8 µM, an LC50 [12] of 53.7 µM and a TGI ([12]; read-out: pTGI (converted)) of 29.5 µM. It also gave a GI50 [13] of 26.9 µM, an LC50 (concentration killing 50% of cells) [13] of over 100 µM and a TGI ([13]; read-out: pTGI (converted)) of 89.1 µM. For the same compound, the GI50 [14] was 20.9 µM, the CC50 [14, 34] was over 100 µM and the TGI ([14]; read-out: pTGI (converted)) was 47.9 µM. For the same compound, the GI50 [15] was 15.5 µM, the LC50 [15] was 83.2 µM and the TGI ([15]; read-out: pTGI (converted)) was 35.5 µM. It also gave a GI50 [16] of 15.1 µM, an LC50 [16] of over 100 µM and a TGI ([16]; read-out: pTGI (converted)) of 44.7 µM. It also gave a GI50 [17] of 15.1 µM, an LC50 [17] of 53.7 µM and a TGI ([17]; read-out: pTGI (converted)) of 28.2 µM. It also gave a GI50 [18] of 17.8 µM, a CC50 [18, 34] of over 100 µM and a TGI ([18]; read-out: pTGI (converted)) of 53.7 µM. For the same compound, the GI50 [19] was 19.1 µM, the CC50 [19, 34] was over 100 µM and the TGI ([19]; read-out: pTGI (converted)) was 44.7 µM. The GI50 [20] was 11 µM, the CC50 [20, 34] was 53.7 µM and the TGI ([20]; read-out: pTGI (converted)) was 24 µM. The GI50 [21] was 16.6 µM, the CC50 [21, 34] was 70.8 µM and the TGI ([21]; read-out: pTGI (converted)) was 33.9 µM. The GI50 [22] was 33.1 µM, the CC50 [22, 34] was over 100 µM and the TGI ([22]; read-out: pTGI (converted)) was 97.7 µM. It also gave a GI50 [23] of 17 µM, an LC50 [23] of 55 µM and a TGI ([23]; read-out: pTGI (converted)) of 30.2 µM. For the same compound, the CC50 [24, 34] was over 100 µM, the TGI ([24]; read-out: pTGI (converted)) was over 100 µM and the GI50 [25] was 13.5 µM. For the same compound, the CC50 [25, 34] was 75.9 µM, the TGI ([25]; read-out: pTGI (converted)) was 31.6 µM and the GI50 [26] was 12.9 µM. For the same compound, the CC50 [26, 34] was 72.4 µM, the TGI ([26]; read-out: pTGI (converted)) was 30.9 µM and the GI50 [27] was 33.9 µM. The LC50 [27] was over 100 µM, the TGI ([27]; read-out: pTGI (converted)) was over 100 µM and the GI50 [28] was 35.5 µM. The CC50 [28, 34] was over 100 µM, the TGI ([28]; read-out: pTGI (converted)) was over 100 µM and the GI50 [29] was 31.6 µM. The LC50 [29] was over 100 µM, the TGI ([29]; read-out: pTGI (converted)) was over 100 µM and the GI50 [30] was 15.5 µM. For the same compound, the LC50 [30] was 63.1 µM, the TGI ([30]; read-out: pTGI (converted)) was 31.6 µM and the GI50 [31] was 11.5 µM. It also gave a CC50 [31, 34] of 55 µM, a TGI ([31]; read-out: pTGI (converted)) of 25.1 µM and a GI50 [32] of 21.4 µM. It also gave an LC50 [32] of over 100 µM, a TGI ([32]; read-out: pTGI (converted)) of 53.7 µM and a GI50 [33] of 15.1 µM. It also gave a CC50 [33, 34] of over 100 µM and a TGI ([33]; read-out: pTGI (converted)) of 43.7 µM.
